According to patent US20060228754A1 (priority 1998, published 2006):

How the values were obtained:
cholera toxin B subunit [1] = target: T1, cholera toxin B subunit (Vibrio cholerae serotype O1, UniProt P01556); assay type: binding
cholera toxin B subunit [2] = target: T1, cholera toxin B subunit; conditions: cited from earlier work
L-selectin = target: T2, L-selectin (Homo sapiens, UniProt P14151); conditions: cited from earlier work
T2 sequence (P14151 39-372): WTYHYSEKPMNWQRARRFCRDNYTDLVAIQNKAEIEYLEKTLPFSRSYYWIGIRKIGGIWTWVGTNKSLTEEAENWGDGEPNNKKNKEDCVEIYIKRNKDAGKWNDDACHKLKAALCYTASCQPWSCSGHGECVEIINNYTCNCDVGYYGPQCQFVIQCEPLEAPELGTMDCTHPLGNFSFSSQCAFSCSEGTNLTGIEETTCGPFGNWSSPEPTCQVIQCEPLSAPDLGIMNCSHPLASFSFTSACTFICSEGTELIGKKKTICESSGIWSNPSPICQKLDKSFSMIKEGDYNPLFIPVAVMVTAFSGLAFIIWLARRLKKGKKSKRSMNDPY

human α-thrombin = target: T3, human α-thrombin (Homo sapiens, UniProt P00734); conditions: affinity label; cited from earlier work
T3 construct: screened against immobilized human α-thrombin; purchased Sigma Chemical Co

T1 sequence (P01556 22-124 limits assumed): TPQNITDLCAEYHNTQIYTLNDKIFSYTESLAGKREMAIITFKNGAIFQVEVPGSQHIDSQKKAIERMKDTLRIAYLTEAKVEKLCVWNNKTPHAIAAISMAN

## COC(=O)CCCCCCCCOC1OC(COC2OC(CO)C(O)C(O)C2O)C(O)C(OC2OC(CO)C(O)C(O)C2O)C1O (stereo not drawn) [compound 3, αMan(1-3)[αMan(1-6)]βMan-OGr]
Cholera toxin B subunit [1]
  break through (in words): broke through in the void volume

## CC(=O)N[C@H]1[C@H](O[C@@H]2[C@H](O[C@]3(C(=O)O)C[C@H](O)[C@@H](NC(C)=O)[C@H]([C@H](O)[C@H](O)CO)O3)[C@@H](O)[C@H](O[C@H]3[C@H](O)[C@@H](O)[C@H](O)O[C@@H]3CO)O[C@@H]2CO)O[C@H](CO)[C@H](O)[C@@H]1O[C@@H]1O[C@H](CO)[C@H](O)[C@H](O)[C@H]1O [compound 7, GM1 oligosaccharide]
Cholera toxin B subunit [1]
  break through volume: ~300 µL
Cholera toxin B subunit [2]
  Kd: ~100 nM

## CC(=O)NC1C(O)CC(OCCOC2OC(CO)C(O)C(OC3OC(CO)C(O)C(O)C3O)C2NC(C)=O)(C(=O)O)OC1C(O)C(O)CO (stereo not drawn) [compound 8, βGal(1-3)βGalNAc(1-)-OCH2CH2O-(-2)αNeu5Ac]
Cholera toxin B subunit [1]
  break through time: about 11 min

## O=P(O)(O)O[C@H]1[C@H](OP(=O)(O)O)[C@@H](OP(=O)(O)O)[C@H](OP(=O)(O)O)[C@@H](OP(=O)(O)O)[C@H]1OP(=O)(O)O [phytic acid]
L-selectin
  Kd: 1000 nM

## fPR-chloromethyl ketone
Human α-thrombin
  Kd: ~50 nM
